The results in this text go back to patent publication US7030150B2, “Benzimidazole compounds and antiviral uses thereof” (Trimeris, Inc., priority 2001, dated 2006).

The structures appear in SMILES notation.

The test system of this series is uninfected Hep2 cells.
The term CC50 denotes the concentration at which the toxic effect on the cells reaches its halfway point. The low end stands for harm at low concentration, the high end for better tolerance by the cells. Consider `CC(C)N(Cc1nc2ccccc2n1Cc1c2ccccc2nc2ccccc12)C1CCCCC1` [compound 10], for which the CC50 was at least 100 µM. In the case of `CN1CCN(CCCNCc2nc3ccccc3n2Cc2nc3ccccc3[nH]2)CC1` [compound 112] it was at least 100 µM. With `CN1CCCC1CCNCc1nc2ccccc2n1Cc1nc2ccccc2[nH]1` (centres unmarked) [compound 172], the midpoint of cytotoxicity, the CC50, lay at 95 µM.

Compound `CCCCN(CCCC)CCCNCc1nc2ccccc2n1Cc1nc2ccccc2[nH]1` [compound 100] displayed a CC50 of 9.3 µM.

Take `O=C1c2ccccc2C(=O)N1Cc1nc2ccccc2n1Cc1nc2ccccc2[nH]1` [compound 226]: it took 50 µM to reach half-maximal cytotoxicity (CC50). In the case of `OCC1CCCN(Cc2nc3ccccc3n2Cc2nc3ccccc3[nH]2)C1` (centres unmarked) [compound 211] it was 32 µM. In the case of `C#CCN(C)Cc1nc2ccccc2n1Cc1nc2ccccc2[nH]1` [compound 90] it was at least 100 µM; in that of `c1ccc(CC2=NCCN2Cc2nc3ccccc3n2Cc2nc3ccccc3[nH]2)cc1` [compound 204], at least 100 µM. For `Cc1ccc(N2CCN(Cc3nc4ccccc4n3Cc3nc4ccccc4[nH]3)CC2)c(C)c1` [compound 227] the value was at least 100 µM; for `O=C1CCCN1CCCNCc1nc2ccccc2n1Cc1nc2ccccc2[nH]1` [compound 158], at least 100 µM; for `c1ccc(CN2CCC(NCc3nc4ccccc4n3Cc3nc4ccccc4[nH]3)C2)cc1` (centres unmarked) [compound 149], 39 µM. `O=[N+]([O-])c1ccc(Cn2c(CN3CCCCC3)nc3ccccc32)o1` [compound 54]: half-maximal cytotoxicity (CC50) was put at 97 µM. For `c1ccc(CC(NCc2nc3ccccc3n2Cc2nc3ccccc3[nH]2)c2ccccc2)cc1` (centres unmarked) [compound 168] the value was at least 100 µM; for `COc1cc2c(cc1OC)C(CC#N)N(Cc1nc3ccccc3n1Cc1nc3ccccc3[nH]1)CC2` (centres unmarked) [compound 223], at least 100 µM. For `COc1ccc(CNCc2nc3ccccc3n2Cc2nc3ccccc3[nH]2)cc1` [compound 146] the value was at least 100 µM; for `O=C1C(=O)N(Cc2nc3ccccc3n2Cc2nc3ccccc3[nH]2)c2ccc(F)cc21` [compound 237], 65 µM; for `C1=CCN(Cc2nc3ccccc3n2Cc2nc3ccccc3[nH]2)C1` [compound 201], 19 µM. `FC(F)(F)c1cnc(N2CCCN(Cc3nc4ccccc4n3Cc3nc4ccccc4[nH]3)CC2)c(Cl)c1` [compound 215] registered a cytotoxic concentration (CC50) of at least 100 µM.

Turning to `CN(C)CCCN(CCCN(C)C)Cc1nc2ccccc2n1Cc1nc2ccccc2[nH]1` [compound 101], the CC50 is at least 100 µM. `c1ccc2[nH]c(Cn3c(CNC4CC5CCC4C5)nc4ccccc43)nc2c1` (centres unmarked) [compound 119] yielded a half-maximal cytotoxic concentration (CC50) of at least 100 µM. For `Clc1ccc(CCNCc2nc3ccccc3n2Cc2nc3ccccc3[nH]2)cc1` [compound 163] the value was 16 µM. In the case of `O=C1CCCN1CCCNCc1nc2ccccc2n1Cc1nc2ccccc2[nH]1` [compound 141] it was 35 µM. The compound `c1ccc2[nH]c(Cn3c(CNCCCn4ccnc4)nc4ccccc43)nc2c1` [compound 105] came in with a cytotoxic concentration (CC50) of 26 µM. In the case of `c1csc(CNCc2nc3ccccc3n2Cc2nc3ccccc3[nH]2)c1` [compound 142] it was at least 100 µM; in that of `c1ccc2[nH]c(Cn3c(CNCCCN4CCCC4)nc4ccccc43)nc2c1` [compound 147], at least 100 µM.

In turn, `CSc1ccc(Cn2c(CN3CCCCC3)nc3ccccc32)cc1` [compound 61] showed a CC50 of 20 µM. Compound `FC(F)(F)Oc1ccccc1Cn1c(CN2CCCCC2)nc2ccccc21` [compound 62] came in with a 50% cytotoxic concentration (CC50) of 34 µM. `CSc1ccc(Cn2c(CN3CCCCC3)nc3ccccc32)cc1` [compound 76] registered a cytotoxic concentration (CC50) of 11 µM. In the case of `COc1ccccc1CCNCc1nc2ccccc2n1Cc1nc2ccccc2[nH]1` [compound 175] it was at least 100 µM; in that of `CCNCc1nc2ccccc2n1Cc1nc2ccccc2[nH]1` [compound 123], at least 100 µM; in that of `c1ccc2[nH]c(Cn3c(CN4CCC5CCCCC5C4)nc4ccccc43)nc2c1` (centres unmarked) [compound 214], at least 100 µM.

`CNCc1nc2ccccc2n1Cc1nc2ccccc2[nH]1` [compound 164] gave a 50% cytotoxic concentration (CC50) of at least 100 µM. In the case of `CC1C=CC(C)N1Cc1nc2ccccc2n1Cc1nc2ccccc2[nH]1` (centres unmarked) [compound 207] it was at least 100 µM; in that of `c1ccc2[nH]c(Cn3c(CNC4CCCCC4)nc4ccccc43)nc2c1` [compound 165], at least 100 µM. For `CC(C)N(Cc1nc2ccccc2n1Cc1cccc(Oc2ccccc2)c1)C1CCCCC1` [compound 12] the value was at least 100 µM; for `c1ccc(C(CNCc2nc3ccccc3n2Cc2nc3ccccc3[nH]2)c2ccccc2)cc1` [compound 132], at least 100 µM; for `COc1cc(CNCc2nc3ccccc3n2Cc2nc3ccccc3[nH]2)cc(OC)c1` [compound 122], at least 100 µM. As for `CCOCCCNCc1nc2ccccc2n1Cc1nc2ccccc2[nH]1` [compound 182], the cytotoxic concentration (CC50) was at least 100 µM. In the case of `c1ccc(CN2CCN(Cc3nc4ccccc4n3Cc3nc4ccccc4[nH]3)CC2)cc1` [compound 231] it was 15 µM; in that of `O=[N+]([O-])c1ccc(Cn2c(CN3CCCCC3)nc3ccccc32)o1` [compound 77], at least 100 µM. `CS(=O)(=O)c1ccc(Cn2c(CN3CCCCC3)nc3ccccc32)cc1` [compound 60] returned a CC50 of at least 100 µM. In turn, `ClCc1nc2ccccc2n1Cc1nc2ccccc2[nH]1` [compound 1] registered a CC50 of 50 µM. For `c1coc(CNCc2nc3ccccc3n2Cc2nc3ccccc3[nH]2)c1` [compound 154] the value was at least 100 µM; for `CCOC(=O)C1CCN(Cc2nc3ccccc3n2Cc2nc3ccccc3[nH]2)CC1` [compound 203], at least 100 µM; for `OCCNCc1nc2ccccc2n1Cc1nc2ccccc2[nH]1` [compound 117], at least 100 µM.

Take `CN(CCc1ccccn1)Cc1nc2ccccc2n1Cc1nc2ccccc2[nH]1` [compound 98]: the 50% cytotoxic concentration (CC50) was at least 100 µM. For `CC(C)OCCCNCc1nc2ccccc2n1Cc1nc2ccccc2[nH]1` [compound 129] the value was at least 100 µM; for `c1ccc2[nH]c(Cn3c(CNCC4CCCO4)nc4ccccc43)nc2c1` (centres unmarked) [compound 170], at least 100 µM. For `O=C(c1ccco1)N1CCN(Cc2nc3ccccc3n2Cc2nc3ccccc3[nH]2)CC1` [compound 198] the value was at least 100 µM; for `Oc1ccc(N2CCN(Cc3nc4ccccc4n3Cc3nc4ccccc4[nH]3)CC2)cc1` [compound 220], at least 100 µM. For the compound `COc1cc(Cn2c(CN(C(C)C)C3CCCCC3)nc3ccccc32)cc(OC)c1` [compound 3], it took 50 µM to reach half-maximal cytotoxicity (CC50).

`CCN(Cc1nc2ccccc2n1Cc1nc2ccccc2[nH]1)C(C)C` [compound 81] displayed a CC50 of 63 µM. `CCCN(Cc1nc2ccccc2n1Cc1ccc(S(C)(=O)=O)cc1)CC1CC1` [compound 26]: it took 97 µM to reach half-maximal cytotoxicity (CC50). In the case of `CC(C)CCN(CCC(C)C)Cc1nc2ccccc2n1Cc1nc2ccccc2[nH]1` [compound 87] it was at least 100 µM; in that of `Fc1ccc(CCNCc2nc3ccccc3n2Cc2nc3ccccc3[nH]2)cc1` [compound 167], at least 100 µM.

With `O=C1C(=O)N(Cc2nc3ccccc3n2Cc2nc3ccccc3[nH]2)c2ccc(Br)cc21` [compound 235], the cytotoxic concentration (CC50) was at least 100 µM.

In turn, `CCCCCCCCN(CCCCCCCC)Cc1nc2ccccc2n1Cc1nc2ccccc2[nH]1` [compound 106] gave a CC50 of 74 µM.

Turning to `C1=CCN(Cc2nc3ccccc3n2Cc2nc3ccccc3[nH]2)CC1` [compound 202], the 50% cytotoxic concentration (CC50) was at least 100 µM. In the case of `CCOCCCNCc1nc2ccccc2n1Cc1nc2ccccc2[nH]1` [compound 159] it was at least 100 µM; in that of `c1ccc2[nH]c(Cn3c(CNCCCn4ccnc4)nc4ccccc43)nc2c1` [compound 136], at least 100 µM; in that of `Fc1cccc(F)c1CNCc1nc2ccccc2n1Cc1nc2ccccc2[nH]1` [compound 161], at least 100 µM. In the case of `c1ccc2[nH]c(Cn3c(CN4CCCCCCC4)nc4ccccc43)nc2c1` [compound 233] it was at least 100 µM; in that of `CCCN(Cc1nc2ccccc2n1Cc1csc(C)n1)CC1CC1` [compound 21], 50 µM; in that of `CC1CCCCN1CCCNCc1nc2ccccc2n1Cc1nc2ccccc2[nH]1` (centres unmarked) [compound 160], 88 µM. For `COc1ccc(N2CCN(Cc3nc4ccccc4n3Cc3nc4ccccc4[nH]3)CC2)cc1` [compound 197], the CC50 is at least 100 µM.

Compound `CCCCCCN(C)Cc1nc2ccccc2n1Cc1nc2ccccc2[nH]1` [compound 88] displayed a CC50 of at least 100 µM. In the case of `CCCN(Cc1nc2ccccc2n1Cc1cccc(Oc2ccccc2)c1)CC1CC1` [compound 25] it was at least 101 µM; in that of `CSc1ccc(Cn2c(CN(C(C)C)C3CCCCC3)nc3ccccc32)cc1` [compound 14], 30 µM; in that of `CCN(CCO)Cc1nc2ccccc2n1Cc1nc2ccccc2[nH]1` [compound 96], at least 100 µM.

In the case of `CCN1CCN(Cc2nc3ccccc3n2Cc2nc3ccccc3[nH]2)CC1` [compound 230], the CC50 was at least 100 µM.

With `c1ccc2nc(Cn3c(CN4CCCCC4)nc4ccccc43)ccc2c1` [compound 50], the CC50 amounted to 50 µM. In the case of `c1ccc2c(NCc3nc4ccccc4n3Cc3nc4ccccc4[nH]3)cccc2c1` [compound 180] it was 14 µM. In the case of `Clc1ccc(CNCc2nc3ccccc3n2Cc2nc3ccccc3[nH]2)cc1Cl` [compound 171] it was 58 µM; in that of `Fc1cc2c(c(Cn3c(CN4CCCCC4)nc4ccccc43)c1)OCOC2` [compound 73], 101 µM; in that of `CN(Cc1nc2ccccc2n1Cc1nc2ccccc2[nH]1)CC(O)c1ccc(O)cc1` (centres unmarked) [compound 97], 77 µM. In the case of `c1ccc2[nH]c(Cn3c(CNC4CCCC4)nc4ccccc43)nc2c1` [compound 177] it was at least 100 µM; in that of `CCCNCc1nc2ccccc2n1Cc1nc2ccccc2[nH]1` [compound 128], at least 100 µM. Take `CN(Cc1ccco1)Cc1nc2ccccc2n1Cc1nc2ccccc2[nH]1` [compound 85]: the CC50 was at least 100 µM. In the case of `FC(F)(F)c1ccccc1CNCc1nc2ccccc2n1Cc1nc2ccccc2[nH]1` [compound 139] it was 18 µM; in that of `OCC1CCCN1Cc1nc2ccccc2n1Cc1nc2ccccc2[nH]1` (centres unmarked) [compound 209], at least 100 µM.
